These are literature values, as cited in patent US7595169B2, “Method for determining percent platelet aggregation” (Accumetrics, Inc., priority 2005, dated 2009).

This series concerns platelet aggregation. The following applies: patients with stable angina pectoris scheduled for elective coronary stent placement; literature study.

With `COC(=O)[C@H](c1ccccc1Cl)N1CCc2sccc2C1` [clopidogrel], the “patients receiving the drug who did not achieve the expected platelet aggregation inhibition” value was “at least 10%”.
